These results are taken from US11812767B2, “Beverage having Reb D and Reb M” (SUNTORY HOLDINGS LIMITED, priority 2018, dated 2023).

The conditions of series [1]: cited from earlier work.
A short description of series [2]: Degradation of Reb D and Reb M in phosphate buffer at 40° C. for 8 weeks, analysed by HPLC. The following applies: for % Reb M degradation 2 weeks: 2 weeks at 40° C.; for % Reb M degradation 4 weeks: 4 weeks at 40° C.; for % Reb M degradation 6 weeks: 6 weeks at 40° C.; for % Reb M degradation 8 weeks: 8 weeks at 40° C. It counts as physicochemical. The procedure:
A study was carried out as follows, samples were prepared comprising 50 ppm, 150 ppm, 250 ppm and 400 ppm, of Reb D and samples with the following ratios of Reb D:Reb M 1:4, 1:1, 4:1 wherein the total concentration of the sample was 400 ppm. The samples were prepared in phosphate buffer and the pH was adjusted using phosphoric acid. Samples were prepared at the following pH; 2.0, 2.5, 3.0 and 3.5. These samples were incubated at 40° C. for 8 weeks. This incubation protocol should mimic the degradation at room temperature over 6 months. The amount of Reb D and Reb M in each sample at T=0 was calculated by HPLC this was then used to calculate the amount of remaining Reb M in each sample at each specified time point. Aliquots were taken at 2, 4, 6 and 8 weeks and analysed by HPLC to determine the degradation of Reb D and combinations of Reb D and Reb M over the 8 week study.

The mark [3] stands for this setting: pH 2, Reb D 0.008 % w/w + Reb M 0.032 % w/w.
Where [4] appears, read: pH 2, Reb D 0.02 % w/w + Reb M 0.02 % w/w.
Where [5] appears, read: pH 2, Reb D 0.032 % w/w + Reb M 0.008 % w/w.
Setting [6] is: pH 2.5, Reb D 0.008 % w/w + Reb M 0.032 % w/w.
[7] abbreviates: pH 2.5, Reb D 0.02 % w/w + Reb M 0.02 % w/w.
The mark [8] stands for this setting: pH 2.5, Reb D 0.032 % w/w + Reb M 0.008 % w/w.
Setting [9] is: pH 3, Reb D 0.008 % w/w + Reb M 0.032 % w/w.
[10] abbreviates: pH 3, Reb D 0.02 % w/w + Reb M 0.02 % w/w.
Where [11] appears, read: pH 3, Reb D 0.032 % w/w + Reb M 0.008 % w/w.
[12] abbreviates: pH 3.5, Reb D 0.008 % w/w + Reb M 0.032 % w/w.
Where [13] appears, read: pH 3.5, Reb D 0.02 % w/w + Reb M 0.02 % w/w.
The mark [14] stands for this setting: pH 3.5, Reb D 0.032 % w/w + Reb M 0.008 % w/w.

Take `C=C1C[C@@]23CC[C@H]4[C@@](C)(CCC[C@@]4(C)C(=O)O[C@@H]4O[C@H](CO)[C@@H](O)[C@H](O)[C@H]4O[C@@H]4O[C@H](CO)[C@@H](O)[C@H](O)[C@H]4O)[C@@H]2CC[C@]1(O[C@@H]1O[C@H](CO)[C@@H](O)[C@H](O)[C@H]1O[C@@H]1O[C@H](CO)[C@@H](O)[C@H](O)[C@H]1O)C3` [Rebaudioside E]: the “Sweetness potency (relative to sucrose)” value in series [1] is listed as 174.

Consider `C=C1C[C@@]23CC[C@H]4[C@@](C)(CCC[C@@]4(C)C(=O)O)[C@@H]2CC[C@]1(O[C@@H]1O[C@H](CO)[C@@H](O)[C@H](O)[C@H]1O[C@@H]1O[C@H](CO)[C@@H](O)[C@H](O)[C@H]1O)C3` [Steviolbioside], for which the “Sweetness potency (relative to sucrose)” value in series [1] is on record as 90.

In the case of `C=C1C[C@@]23CC[C@H]4[C@@](C)(CCC[C@@]4(C)C(=O)O[C@@H]4O[C@H](CO)[C@@H](O)[C@H](O)[C@H]4O)[C@@H]2CC[C@]1(O[C@@H]1O[C@H](CO)[C@@H](O)[C@H](O[C@@H]2O[C@H](CO)[C@@H](O)[C@H](O)[C@H]2O)[C@H]1O[C@@H]1O[C@H](CO)[C@@H](O)[C@H](O)[C@H]1O)C3` [Rebaudioside A], the “Sweetness potency (relative to sucrose)” value in series [1] is listed as 200-300.

As for Rebaudioside F, the “Sweetness potency (relative to sucrose)” value in series [1] is recorded as 200.

With `C=C1C[C@@]23CC[C@H]4[C@@](C)(CCC[C@@]4(C)C(=O)O[C@@H]4O[C@H](CO)[C@@H](O)[C@H](O)[C@H]4O)[C@@H]2CC[C@]1(O[C@@H]1O[C@H](CO)[C@@H](O)[C@H](O)[C@H]1O[C@@H]1O[C@H](CO)[C@@H](O)[C@H](O)[C@H]1O)C3` [Stevioside], in series [1], the “Sweetness potency (relative to sucrose)” value is 150-250.

On to Rebaudioside B, for which the “Sweetness potency (relative to sucrose)” value in series [1] was 150.

Consider `C=C1C[C@@]23CC[C@H]4[C@@](C)(CCC[C@@]4(C)C(=O)O[C@@H]4O[C@H](CO)[C@@H](O)[C@H](O[C@@H]5O[C@H](CO)[C@@H](O)[C@H](O)[C@H]5O)[C@H]4O[C@@H]4O[C@H](CO)[C@@H](O)[C@H](O)[C@H]4O)[C@@H]2CC[C@]1(O[C@@H]1O[C@H](CO)[C@@H](O)[C@H](O[C@@H]2O[C@H](CO)[C@@H](O)[C@H](O)[C@H]2O)[C@H]1O[C@@H]1O[C@H](CO)[C@@H](O)[C@H](O)[C@H]1O)C3` [Reb M, rebaudioside M], for which the “% Reb M degradation 2 weeks” value in series [2] (setting [3]) is 28%; in series [2] (setting [4]), 25%; in series [2] (setting [5]), 35%; in series [2] (setting [6]), 3%; in series [2] (setting [7]) it was 6%; in series [2] (setting [8]), 4%. For the same compound, the “% Reb M degradation 2 weeks” value in series [2] (setting [9]), in series [2] (setting [10]), in series [2] (setting [11]), in series [2] (setting [12]), in series [2] (setting [13]) and in series [2] (setting [14]) was 0% throughout. Further, the “% Reb M degradation 4 weeks” value turned out to be 55% in series [2] (setting [3]); 56% in series [2] (setting [4]); 59% in series [2] (setting [5]); 22% in series [2] (setting [6]); 20% in series [2] (setting [7]); 18% in series [2] (setting [8]). In addition, the “% Reb M degradation 4 weeks” value is listed as 11% in series [2] (setting [9]); 10% in series [2] (setting [10]); 7% in series [2] (setting [11]); 4% in series [2] (setting [12]); 3% in series [2] (setting [13]); 0% in series [2] (setting [14]). The “% Reb M degradation 6 weeks” value in series [2] (setting [3]) came out at 71%; in series [2] (setting [4]), 69%; in series [2] (setting [5]) it was 72%; in series [2] (setting [6]), 31%; in series [2] (setting [7]) it was 29%; in series [2] (setting [8]), 28%. The “% Reb M degradation 6 weeks” value in series [2] (setting [9]) is given as 15%; in series [2] (setting [10]), 14%; in series [2] (setting [11]), 12%; in series [2] (setting [12]), 4%; in series [2] (setting [13]), 4%; in series [2] (setting [14]) it was 2%. For the same compound, the “% Reb M degradation 8 weeks” value in series [2] (setting [3]) came to 80%; in series [2] (setting [4]), 78%; in series [2] (setting [5]), 80%; in series [2] (setting [6]), 38%; in series [2] (setting [7]) it was 38%; in series [2] (setting [8]), 38%. Further, the “% Reb M degradation 8 weeks” value in series [2] (setting [9]) worked out at 17%; in series [2] (setting [10]), 17%; in series [2] (setting [11]), 15%; in series [2] (setting [12]), 6%; in series [2] (setting [13]), 7%; in series [2] (setting [14]), 5%. Also, the “Sweetness potency (relative to sucrose)” value in series [1] is listed as 200-250.

As to `C=C1C[C@@]23CC[C@H]4[C@@](C)(CCC[C@@]4(C)C(=O)O[C@@H]4O[C@H](CO)[C@@H](O)[C@H](O)[C@H]4O)[C@@H]2CC[C@]1(O[C@@H]1O[C@H](CO)[C@@H](O)[C@H](O)[C@H]1O)C3` [Rubusoside], the “Sweetness potency (relative to sucrose)” value in series [1] was 114.

With Rebaudioside C, the “Sweetness potency (relative to sucrose)” value in series [1] is 30.
